Inhibition data for 34 molecules are collected here from patent US8901307B2, “Chemical compounds 251” (AstraZeneca AB, priority 2008, dated 2014).

Structures are written as SMILES. Structures can show the parent of a compound that is named as a salt. Where two headings read alike, the source gives them in different places.

One assay concerns the target T1, human His-PIM1 [2-313] (Homo sapiens, UniProt P11309).
T1 construct: purified human His-PIM1 [2-313] enzyme; His (N); purchased University of Dundee, Scotland; host or cells: baculovirus system
The assay is described as follows: PIM1 in-vitro mobility shift assay (Caliper LC3000, FL-Ahx-Bad phosphorylation). Format: biochemical. The conditions noted are these: 1.5 h, read-out: PIM1 % I at 0.3 uM. The essentials:
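Compound preincubated 20 min at 25 °C with 2.4 nM PIM1, 3.6 µM FL-Ahx-Bad peptide and 240 µM ATP (1.2× mix concentrations). Reaction started with 24 mM MgCl2 mix, run 90 min at 25 °C, EDTA-stopped. Phospho/unphospho peptide separated by microfluidic mobility shift; percent inhibition from ratiometric turnover.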

In a further assay the target is T2, human His-PIM2 [23-299] (Homo sapiens, UniProt Q9P1W9).
T2 construct: purified human His-PIM2 [23-299] enzyme; His (N); host or cells: E. coli
The assay is described as follows: PIM2 in-vitro mobility shift assay (Caliper LC3000, FL-Ahx-Bad phosphorylation). It is filed as biochemical. The conditions noted are these: 1.5 h; percent inhibition at 0.3 uM compound; read-out: PIM2 % I at 0.3 uM.

[1] abbreviates: percent inhibition at 0.3 uM compound.

T1 sequence (P11309 2-313): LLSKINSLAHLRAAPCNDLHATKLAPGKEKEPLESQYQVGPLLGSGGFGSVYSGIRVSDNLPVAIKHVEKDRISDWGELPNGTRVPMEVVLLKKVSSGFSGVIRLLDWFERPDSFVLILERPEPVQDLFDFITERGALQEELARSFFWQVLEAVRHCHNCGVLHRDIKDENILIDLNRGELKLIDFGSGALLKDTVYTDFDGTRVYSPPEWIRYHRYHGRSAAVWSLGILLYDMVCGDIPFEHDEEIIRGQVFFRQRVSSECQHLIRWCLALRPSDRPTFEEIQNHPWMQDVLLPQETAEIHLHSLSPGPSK
T2 sequence (Q9P1W9 23-299): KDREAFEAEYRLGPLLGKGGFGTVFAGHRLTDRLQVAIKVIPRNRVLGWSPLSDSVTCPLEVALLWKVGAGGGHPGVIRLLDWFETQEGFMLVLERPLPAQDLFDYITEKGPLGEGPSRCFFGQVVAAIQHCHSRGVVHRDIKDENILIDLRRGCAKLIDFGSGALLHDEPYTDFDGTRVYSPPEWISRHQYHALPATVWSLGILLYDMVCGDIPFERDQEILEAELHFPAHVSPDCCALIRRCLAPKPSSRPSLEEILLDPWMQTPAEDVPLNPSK

`COc1cc(/C=C2\SC(=O)NC2=O)c(N(C)CCN(C)C)cc1OC` [Example 51, (5Z)-5-{2-[[2-(dimethylamino)ethyl](methyl)amino]-4,5-dimethoxybenzylidene}-1,3-thiazolidine-2,4-dione]: the values for the inhibition at 0.3 µM on human His-PIM1 [2-313] (setting [1]) and on human His-PIM2 [23-299] were 85.5% and 80.6%, respectively.
`CN(C)C1CCN(c2ccc(N)cc2/C=C2\SC(=O)NC2=O)C1` (centres unmarked) [Example 151, (Z)-5-(5-amino-2-(3-(dimethylamino)pyrrolidin-1-yl)benzylidene)thiazolidine-2,4-dione]: the results for the inhibition at 0.3 µM on human His-PIM1 [2-313] (setting [1]) and on human His-PIM2 [23-299] were 31.5% and 13.5%, respectively.
For `CN1CCN(c2c(Cl)cc(C(F)(F)F)cc2/C=C2\SC(=O)NC2=O)CC1` [Example 32], in that order: 94% and 31.9%.
Take `N[C@@H]1CCCN(c2c(Br)cccc2/C=C2\SC(=O)NC2=O)C1` [Example 122F, (R,Z)-5-(2-(3-aminopiperidin-1-yl)-3-bromobenzylidene)thiazolidine-2,4-dione hydrochloride]: the inhibition at 0.3 µM on human His-PIM1 [2-313] and at human His-PIM2 [23-299] was more than 95% throughout.
With `COCC(=O)N[C@H]1CCN(c2c(Cl)cccc2/C=C2\SC(=O)NC2=O)C1` [Example 136], the inhibition at 0.3 µM on human His-PIM1 [2-313] (setting [1]) came to 82.8%; at human His-PIM2 [23-299], 44.6%.
As for `CN(C)CCN(C)S(=O)(=O)c1ccc(-c2ccccc2/C=C2\SC(=O)NC2=O)cc1` [Example 84F, (Z)-N-(2-(dimethylamino)ethyl)-2′-((2,4-dioxothiazolidin-5-ylidene)methyl)-N-methylbiphenyl-4-sulfonamide], the figures for the inhibition at 0.3 µM at human His-PIM1 [2-313] (setting [1]) and at human His-PIM2 [23-299] were 87.4% and 52.4%, respectively.
For `NC(=O)c1ccc(N2CCC[C@@H](N)C2)c(/C=C2\SC(=O)NC2=O)c1` [Example 122AE, (R,Z)-4-(3-aminopiperidin-1-yl)-3-((2,4-dioxothiazolidin-5-ylidene)methyl)benzamide hydrochloride], in that order: more than 95% and more than 95%.
For `N[C@H]1CN(c2c(Cl)cccc2/C=C2\SC(=O)NC2=O)CC[C@@H]1O` (racemic) [Example 122M, (±)-(Z)-5-(2,3-amino-4-hydroxypiperidin-1-yl)-3-chlorobenzylidene)thiazolidine-2,4-dione hydrochloride], in that order: more than 95% and more than 95%.
The corresponding values for `O=C1NC(=O)/C(=C/c2cc(C(F)(F)F)cc(Cl)c2N2CCN(c3ccc(F)cc3)CC2)S1` [Example 7] are 5.4% and less than 5%.
`O=C1NC(=O)/C(=C/c2cc(C(F)(F)F)cc(Cl)c2N2CCN(c3ccc(Cl)cc3F)CC2)S1` [Example 15]: the inhibition at 0.3 µM on human His-PIM1 [2-313] (setting [1]) was 12.9%; on human His-PIM2 [23-299] it was less than 5%.
For `COc1cc(/C=C2\SC(=O)NC2=O)c(N2CCC(CO)CC2)cc1OC` [Example 41, (5Z)-5-{2-[4-(hydroxymethyl)piperidin-1-yl]-4,5-dimethoxybenzylidene}-1-,3-thiazolidine-2,4-dione], the inhibition at 0.3 µM worked out at 74% on human His-PIM1 [2-313] (setting [1]) and 25.1% on human His-PIM2 [23-299].
The corresponding values for `NC[C@@H]1CCN(c2c(Cl)cccc2/C=C2\SC(=O)NC2=O)C1` [Example 122C, (S,Z)-5-(2-(3-(aminomethyl)pyrrolidin-1-yl)-3-chlorobenzylidene)thiazolidine-2,4-dione] are more than 95% and more than 95%.
For `O=C1NC(=O)/C(=C/c2cc(C(F)(F)F)cc(Cl)c2N2CCN(Cc3ccc4c(c3)OCO4)CC2)S1` [Example 8], in that order: 16.3% and less than 5%.
For `O=C1NC(=O)/C(=C/c2cc(C(F)(F)F)cc(Cl)c2N2CCCN(CCO)CC2)S1` [Example 26], in that order: more than 95% and 49.6%.
For `NCCCN[C@H]1CCN(c2ccc(C(F)(F)F)cc2/C=C2\SC(=O)NC2=O)C1` [Example 123, (S,Z)-5-(2-(3-(3-aminopropylamino)pyrrolidin-1-yl)-5-(trifluoromethyl)benzylidene)thiazolidine-2,4-dione hydrochloride], the inhibition at 0.3 µM at human His-PIM1 [2-313] (setting [1]) and at human His-PIM2 [23-299] was more than 95% each time.
Regarding `NCCCCC(=O)N1CCN(c2ccccc2/C=C2\SC(=O)NC2=O)CC1` [Example 108, (Z)-5-(2-(4-(5-aminopentanoyl)piperazin-1-yl)benzylidene)thiazolidine-2,4-dione hydrochloride], the inhibition at 0.3 µM on human His-PIM1 [2-313] (setting [1]) and at human His-PIM2 [23-299] was more than 95% throughout.
In the case of `O=C1NC(=O)/C(=C/c2ccc3[nH]ccc3c2)S1` [Example 78, (5Z)-5-(1H-indol-5-ylmethylene)-1,3-thiazolidine-2,4-dione], the inhibition at 0.3 µM on human His-PIM1 [2-313] (setting [1]) amounted to 71.4%; at human His-PIM2 [23-299], 30%.
The corresponding values for `CCOc1cccc(/C=C2\SC(=O)NC2=O)c1N1CC[C@H](N)C1` [Example 122Q, (S,Z)-5-(2-(3-aminopyrrolidin-1-yl)-3-ethoxybenzylidene)thiazolidine-2,4-dione hydrochloride] are more than 95% and more than 95%.
For `O=C1NC(=O)/C(=C/c2ccc3cc[nH]c3c2)S1` [Example 79, (5Z)-5-(1H-indol-6-ylmethylene)-1,3-thiazolidine-2,4-dione trifluoroacetate], in that order: 90% and 60.7%.
The corresponding values for `COc1cccc(/C=C2\SC(=O)NC2=O)c1N1CCN(C(=O)CCN)CC1` [Example 94, (Z)-5-(2-(4-(3-aminopropanoyl)piperazin-1-yl)-3-methoxybenzylidene)thiazolidine-2,4-dione hydrochloride] are more than 95% and more than 95%.
For `N[C@H]1CCN(c2c(Br)cccc2/C=C2\SC(=O)NC2=O)C1` [Example 122H, (S,Z)-5-(2-(3-aminopyrrolidin-1-yl)-3-bromobenzylidene)thiazolidine-2,4-dione hydrochloride], the inhibition at 0.3 µM on human His-PIM1 [2-313] (setting [1]) and at human His-PIM2 [23-299] was more than 95% in each case.
Turning to `CN1CCN(c2ccccc2/C=C2\SC(=O)NC2=O)CC1` [Example 84A, (5Z)-5-[2-(4-methylpiperazin-1-yl)benzylidene]-1,3-thiazolidine-2,4-dione], the values for the inhibition at 0.3 µM at human His-PIM1 [2-313] (setting [1]) and at human His-PIM2 [23-299] were 92.9% and 54.3%, respectively.
For the molecule `N[C@@H]1CCN(c2c(Cl)cccc2/C=C2\SC(=O)NC2=O)C1` [Example 122G, (R,Z)-5-(2-(3-aminopyrrolidin-1-yl)-3-chlorobenzylidene)thiazolidin-2,4-dione hydrochloride], the inhibition at 0.3 µM at human His-PIM1 [2-313] (setting [1]) was more than 95%; at human His-PIM2 [23-299], 92.1%.
For `N[C@H]1CCN(c2ccccc2/C=C2\SC(=O)NC2=O)C1` [Example 122X, (S,Z)-5-(2-(3-aminopyrrolidin-1-yl)benzylidene)thiazolidine-2,4-dione hydrochloride], the inhibition at 0.3 µM is more than 95% at human His-PIM1 [2-313] (setting [1]) and 67.1% at human His-PIM2 [23-299].
Take `O=C1NC(=O)/C(=C/c2cccc(Cl)c2N2CCC[C@@H](NCCCO)C2)S1` [Example 134]: the inhibition at 0.3 µM on human His-PIM1 [2-313] (setting [1]) is more than 95%; on human His-PIM2 [23-299] it was 85.2%.
For `O=C1NC(=O)/C(=C/c2cccc(Cl)c2N2CCC[C@@H](NCCO)C2)S1` [Example 133], in that order: more than 95% and 93.4%.
Turning to `CN(C)C1CCN(c2ccc(C(N)=O)cc2/C=C2\SC(=O)NC2=O)C1` (centres unmarked) [Example 57, (Z)-4-(3-(dimethylamino)pyrrolidin-1-yl)-3-((2,4-dioxothiazolidin-5-ylidene)methyl)benzamide hydrochloride], the inhibition at 0.3 µM was determined as 53.3% at human His-PIM1 [2-313] (setting [1]) and 42.6% at human His-PIM2 [23-299].
The corresponding values for `CN1CCC(N2CCN(c3c(Cl)cc(C(F)(F)F)cc3/C=C3\SC(=O)NC3=O)CC2)CC1` [Example 19] are more than 95% and 38.3%.
Regarding `CN(C)[C@H]1CCN(c2c(Br)cccc2/C=C2\SC(=O)NC2=O)C1` [Example 33, (S,Z)-5-(3-bromo-2-(3-(dimethylamino)pyrrolidin-1-yl)benzylidene)thiazolidine-2,4-dione hydrochloride], the inhibition at 0.3 µM at human His-PIM1 [2-313] (setting [1]) and at human His-PIM2 [23-299] was more than 95% throughout.
Consider `COc1cc(/C=C2\SC(=O)NC2=O)c(N2CCC(O)C2)cc1OC` (centres unmarked) [Example 45, (5Z)-5-[2-(3-hydroxypyrrolidin-1-yl)-4,5-dimethoxybenzylidene]-1,3-thiazolidine-2,4-dione], for which the results for the inhibition at 0.3 µM on human His-PIM1 [2-313] (setting [1]) and on human His-PIM2 [23-299] were 40.1% and 14.3%, respectively.
For `O=C(Cc1cccnc1)N[C@H]1CCN(c2c(Cl)cccc2/C=C2\SC(=O)NC2=O)C1` [Example 139], in that order: 58.1% and 15.1%.
The corresponding values for `CN(C)C1CCN(c2ccccc2/C=C2\SC(=O)NC2=O)C1` (centres unmarked) [Example 48, (5Z)-5-{2-[3-(dimethylamino)pyrrolidin-1-yl]benzylidene}-1,3-thiazolidine-2,4-dione] are 84.4% and 41.3%.
On to `NC[C@H]1CCN(c2c(Cl)cccc2/C=C2\SC(=O)NC2=O)C1` [Example 122B, (R,Z)-5-(2-(3-(aminomethyl)pyrrolidin-1-yl)-3-chlorobenzylidene)thiazolidine-2,4-dione], for which the figures for the inhibition at 0.3 µM on human His-PIM1 [2-313] (setting [1]) and at human His-PIM2 [23-299] were more than 95% and 92.3%, respectively.
As to `COc1ccc(N2CCC(N(C)C)CC2)c(/C=C2\SC(=O)NC2=O)c1` [Example 44, (5Z)-5-{2-[4-(dimethylamino)piperidin-1-yl]-5-methoxybenzylidene}-1,3-thiazolidine-2,4-dione], the inhibition at 0.3 µM is 83.8% at human His-PIM1 [2-313] (setting [1]) and 46.7% on human His-PIM2 [23-299].
